In PMC8820799, “Angiogenesis and anti-leukaemia activity of novel indole derivatives as potent colchicine binding site inhibitors” (Journal of Enzyme Inhibition and Medicinal Chemistry, 2022):

Key:
HuT 78 = assay: CCK-8 assay, HuT 78; type: cell-based; conditions: Homo sapiens, HuT78; leukaemia, ALL; CCK-8, 72 h
Procedure: (§1) Cells were seeded in 96-well plates at a density of 8 × 10^3 per well and exposed to different concentrations of compounds for 72 h. Subsequently, 10 µL CCK8 solution was added to each well and co-incubated for another 3–4 h at 37 °C. The absorbance was determined at 450 nm. Data was calculated with GraphPad Prism5 software.[32]

K562 = assay: CCK-8 assay, K562; type: cell-based; conditions: Homo sapiens, leukaemia, CML, CCK-8, 72 h
Procedure: as §1

Jurkat = assay: CCK-8 assay, Jurkat; type: cell-based; conditions: Homo sapiens, leukaemia, ALL, CCK-8, 72 h
Procedure: as §1

THP-1 = assay: CCK-8 assay, THP-1; type: cell-based; conditions: Homo sapiens, leukaemia, AML, CCK-8, 72 h
Procedure: as §1

MV4-11 = assay: CCK-8 assay, MV4-11; type: cell-based; conditions: Homo sapiens, leukaemia, AML, CCK-8, 72 h
Procedure: as §1

CCRF-CEM = assay: CCK-8 assay, CCRF-CEM; type: cell-based; conditions: Homo sapiens, leukaemia, ALL, CCK-8, 72 h
Procedure: as §1

HL60 = assay: CCK-8 assay, HL60; type: cell-based; conditions: Homo sapiens, HL-60; leukaemia, APL; CCK-8, 72 h
Procedure: as §1

[1] = target: T1, Tubulin isolated from porcine brain tissue (Sus scrofa, UniProt P02550+P02554); assay: Tubulin polymerisation assay; type: biochemical; conditions: triplicate, mean ± SD; read-out: Tubulin (tubulin inhibitory polymerisation IC50)
T1 construct: purchased Cytoskeleton (Denver, CO), via Beyotime, China; host or cells: porcine brain tissue
Procedure: Tubulin polymerisation was determined with the tubulin polymerisation assay kit (Cytoskeleton, Denver, CO which was purchased from Cytoskeleton, Beyotime, China. Tubulin isolated from porcine brain tissue was used in this commercial kit.) It is based on the principal that light is scattered by microtubules to an extent that is proportional to the concentration of the microtubule polymer. Compounds that interact with tubulin will alter the polymerisation of tubulin, and this can be detected using a spectrophotometer. Tubulin polymerisation dynamics was monitored through measuring the change of absorbance at 340 nm every 2 min for 30 min at 37 °C on a spectrophotometer.

[2] = test system: transgenic zebrafish (FLK-1:EGFP); assay: Zebrafish angiogenesis assay (ISVs); type: in vivo; conditions: Danio rerio, transgenic zebrafish; triplicate, mean ± SD; read-out: Zebrafish (antiangiogenic activity IC50)
Procedure: The transgenic flk: enhanced GFP zebrafish embryos were generated by pair-wise mating, collected and sorted into the 6-well plate (n = 30 per well) with 1 ml of aquaculture water (0.2 g/L of Instant Ocean Salt in distilled water) and raised at 28 °C. Then the embryos staged at 12 h post fertilisation (hpf) were treated with the indicated concentrations of compounds which were added into embryo water. About 30 embryos were screened for each concentration gradient. At 30hpf, the treated embryos were anaesthetised with 0.02% tricaine in embryo water and photographed. The numbers of ISVs were recorded under confocal microscopy. Results were obtained from three independent determinations and presented as mean ± SD.[38]

T1 sequence (P02554 whole entry): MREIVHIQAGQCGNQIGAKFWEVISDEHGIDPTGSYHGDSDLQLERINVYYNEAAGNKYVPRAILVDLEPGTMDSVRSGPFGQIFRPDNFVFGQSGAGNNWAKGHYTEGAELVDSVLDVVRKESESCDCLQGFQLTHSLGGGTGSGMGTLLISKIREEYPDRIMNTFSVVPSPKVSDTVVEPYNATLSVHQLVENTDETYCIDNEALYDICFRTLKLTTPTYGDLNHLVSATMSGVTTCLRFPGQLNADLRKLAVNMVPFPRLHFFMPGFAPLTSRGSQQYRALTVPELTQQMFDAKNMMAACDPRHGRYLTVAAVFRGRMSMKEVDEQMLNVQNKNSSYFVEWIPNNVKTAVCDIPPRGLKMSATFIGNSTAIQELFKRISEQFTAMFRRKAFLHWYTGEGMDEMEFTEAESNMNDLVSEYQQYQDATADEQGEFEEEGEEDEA
T1 sequence (P02550 whole entry): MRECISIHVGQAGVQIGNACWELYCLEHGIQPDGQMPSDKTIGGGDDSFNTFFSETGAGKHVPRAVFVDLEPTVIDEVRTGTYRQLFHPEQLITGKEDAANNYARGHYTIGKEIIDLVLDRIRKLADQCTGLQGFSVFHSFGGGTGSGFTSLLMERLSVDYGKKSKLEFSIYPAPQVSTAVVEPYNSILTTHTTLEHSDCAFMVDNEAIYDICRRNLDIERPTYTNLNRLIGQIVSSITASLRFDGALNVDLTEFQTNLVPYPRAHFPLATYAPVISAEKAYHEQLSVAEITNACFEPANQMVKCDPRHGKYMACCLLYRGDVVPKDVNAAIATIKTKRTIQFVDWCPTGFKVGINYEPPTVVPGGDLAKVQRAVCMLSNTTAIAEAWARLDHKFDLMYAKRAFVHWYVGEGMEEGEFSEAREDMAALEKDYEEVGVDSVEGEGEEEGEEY

Row | SMILES | IC50 (HuT 78) [nM] | IC50 (K562) [nM] | IC50 (Jurkat) [nM] | IC50 (THP-1) [nM] | IC50 (MV4-11) [nM] | IC50 (CCRF-CEM) [nM] | IC50 (HL60) [nM] | IC50 [1] [nM] | IC50 [2] [nM] | melting point [°C]
1 | COc1ccc(/C=C\c2cc(OC)c(OC)c(OC)c2)cc1O [CA-4, Combretastatin A-4, reference compound] | 240 ± 40 | 270 ± 10 | 190 ± 20 | 80 ± 10 | 120 ± 30 | 710 ± 110 | 260 ± 50 | – | – | –
2 | COc1cc(C(=O)/C=C/c2cn(Cc3ccccc3)c3ccccc23)cc(OC)c1OC [Compound 29d, (E)-3–(1-Benzyl-1H-indol-3-yl)-1–(3,4,5-trimethoxyphenyl)prop-2-en-1-one] | – | – | – | – | – | – | – | 24800 ± 2100 | 6700 ± 500 | 160 to 163
3 | COc1cc(C(=O)/C=C/c2ccnc3ccccc23)cc(OC)c1OC [DYT-1, (E)-3-(quinolin-4-yl)-1–(3,4,5-trimethoxyphenyl)prop-2-en-1-one] | – | 6200 | 7900 | – | – | – | – | 25600 | 38400 | –
